The results in this text go back to PubChem BioAssay (NCI).

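Compound exposure: 48 hours, 5 concentrations, 96-well plates. Abbreviation: GI50, concentration required for 50% inhibition of growth. At the TGI there is no net growth.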

Some test systems named below: COLO 205 colon; T-47D breast; RPMI-8226 leukemia; IGROV1 ovarian; CAKI-1 renal; SK-MEL-2 melanoma; 786-0 renal; RXF 393 renal; PC-3 prostate; HCC-2998 colon.
Assay in all cases: growth of human tumour cells (NCI), 48 h

Consider `COc1cc(N(CCC#N)CCC#N)ccc1/C(N=Nc1ccc(C(=O)O)cc1)=N/NC(=O)c1cc(Br)ccc1O`, for which the GI50 in the test on COLO 205 colon is 43.3 µg/mL; in the test with T-47D breast it was 64.4 µg/mL; in the test with RPMI-8226 leukemia, 127 µg/mL; in the test on IGROV1 ovarian, 78.1 µg/mL; with CAKI-1 renal, 130 µg/mL; in the test with SK-MEL-2 melanoma, > 150 µg/mL. Besides, the GI50 with 786-0 renal was 97.8 µg/mL; in the test with RXF 393 renal, 66.3 µg/mL; in the test with PC-3 prostate, 81 µg/mL; in the test on HCC-2998 colon it was 38.3 µg/mL. The TGI was 140 µg/mL in the test with COLO 205 colon; > 150 µg/mL in the test on T-47D breast; > 150 µg/mL in the test with RPMI-8226 leukemia; > 150 µg/mL with IGROV1 ovarian; > 150 µg/mL in the test with CAKI-1 renal; > 150 µg/mL in the test on SK-MEL-2 melanoma. For the same molecule, the TGI was > 150 µg/mL with 786-0 renal, > 150 µg/mL with RXF 393 renal, > 150 µg/mL with PC-3 prostate and 81.7 µg/mL with HCC-2998 colon.

As to `CC1(C)CC[C@]2(C(=O)O)CC[C@]3(C)C(=CC[C@@H]4[C@@]5(C)C/C(=C/c6ccco6)C(=O)C(C)(C)[C@@H]5CC[C@]43C)[C@@H]2C1`, the GI50 with COLO 205 colon was 2.02 µM; in the test on T-47D breast, 3.23 µM; in the test on RPMI-8226 leukemia, 2.22 µM; with IGROV1 ovarian, 4.48 µM; in the test with CAKI-1 renal, 2.72 µM; with SK-MEL-2 melanoma, 2.99 µM. Besides, the GI50 with 786-0 renal is 4.12 µM; with RXF 393 renal it was 3.3 µM; in the test with PC-3 prostate, 2.62 µM; with HCC-2998 colon, 3.15 µM. Moreover, the TGI with COLO 205 colon came out at 3.89 µM; with T-47D breast it was 48.4 µM; in the test on RPMI-8226 leukemia it was 10.7 µM; in the test with IGROV1 ovarian, 22.2 µM; in the test with CAKI-1 renal it was 15.7 µM; in the test on SK-MEL-2 melanoma, 11.4 µM. Also, the TGI stood at 26.5 µM in the test with 786-0 renal, 13.6 µM with RXF 393 renal, 14.9 µM with PC-3 prostate and 12.2 µM in the test on HCC-2998 colon.

Regarding `O=C1CCS/C(=N/S(=O)(=O)c2ccc(N3N=C4c5ccccc5CC4C3c3cccs3)cc2)N1Cc1ccccc1` (stereo not given), the GI50 was 36.8 µM in the test with COLO 205 colon; 45.6 µM in the test with T-47D breast; 18.1 µM with RPMI-8226 leukemia; 17.4 µM in the test with IGROV1 ovarian; 24 µM in the test with CAKI-1 renal; 28 µM in the test on SK-MEL-2 melanoma. The GI50 in the test with 786-0 renal is 17.1 µM; in the test on RXF 393 renal it was 21.2 µM; in the test on PC-3 prostate it was 22.4 µM; in the test on HCC-2998 colon it was 17.9 µM. The TGI in the test with COLO 205 colon is > 100 µM; in the test with T-47D breast it was > 100 µM; in the test with RPMI-8226 leukemia it was > 100 µM; with IGROV1 ovarian, 52.4 µM; in the test with CAKI-1 renal it was 54.3 µM; with SK-MEL-2 melanoma, > 100 µM. For the same molecule, the TGI was 32.4 µM with 786-0 renal, 63.9 µM with RXF 393 renal, 55.2 µM in the test with PC-3 prostate and 33.2 µM in the test with HCC-2998 colon.

On to `C=C1CC/C=C(\C)CC[C@H](C(=C)C)[C@@H](O)/C=C(/CO)CCC1O` (stereo not given in full), for which the GI50 was 88.2 µM in the test with COLO 205 colon; 45.7 µM in the test with T-47D breast; 32 µM in the test with RPMI-8226 leukemia; 44.9 µM in the test on IGROV1 ovarian; 81.4 µM in the test with CAKI-1 renal; > 100 µM in the test with SK-MEL-2 melanoma. Moreover, the GI50 in the test on 786-0 renal was > 100 µM; in the test with RXF 393 renal it was 89.9 µM; with PC-3 prostate, 43.4 µM; in the test on HCC-2998 colon, > 100 µM. Also, the TGI was > 100 µM with COLO 205 colon; > 100 µM in the test on T-47D breast; 71.6 µM with RPMI-8226 leukemia; > 100 µM in the test on IGROV1 ovarian; > 100 µM in the test on CAKI-1 renal; > 100 µM with SK-MEL-2 melanoma. Besides, the TGI in the test on 786-0 renal, in the test on RXF 393 renal, in the test with PC-3 prostate and in the test on HCC-2998 colon was > 100 µM in each case.

In the case of `CC1=C2[C@@H](CC1)[C@]1(C)O[C@@](C3CC3)(C[C@H]1OC(=O)CO)[C@H]2OC(=O)/C=C/c1ccccc1`, the GI50 was 17.9 µM in the test with COLO 205 colon; 12.1 µM with T-47D breast; 19.8 µM in the test on RPMI-8226 leukemia; 19.7 µM with IGROV1 ovarian; 10.9 µM in the test on CAKI-1 renal; 18.1 µM with SK-MEL-2 melanoma. The GI50 with 786-0 renal was 3.19 µM; in the test on RXF 393 renal, 0.0218 µM; with PC-3 prostate it was 13 µM; with HCC-2998 colon it was 16.9 µM. Further, the TGI in the test with COLO 205 colon was 35.7 µM; in the test on T-47D breast, 36.6 µM; in the test on RPMI-8226 leukemia, 54.4 µM; in the test with IGROV1 ovarian, 42.7 µM; with CAKI-1 renal, 24 µM; in the test with SK-MEL-2 melanoma, 36.1 µM. Besides, the TGI turned out to be 25.7 µM in the test with 786-0 renal, 0.858 µM with RXF 393 renal, 28.4 µM in the test with PC-3 prostate and 33.2 µM in the test with HCC-2998 colon.

For the molecule `COc1cc(/C=C2\C(=O)N(C)c3ccccc32)cc(OC)c1OC`, the GI50 with COLO 205 colon was 17.7 µM; in the test with T-47D breast it was 58 µM; in the test with RPMI-8226 leukemia, 9.67 µM; with IGROV1 ovarian, 7.52 µM; with CAKI-1 renal, 17.1 µM; with SK-MEL-2 melanoma, 14.3 µM. Moreover, the GI50 with 786-0 renal is 25.3 µM; in the test on RXF 393 renal it was 0.206 µM; in the test with PC-3 prostate it was 10.5 µM; in the test on HCC-2998 colon, 19 µM. Further, the TGI was > 100 µM in the test on COLO 205 colon; > 100 µM in the test with T-47D breast; 49.1 µM in the test with RPMI-8226 leukemia; 53.4 µM in the test on IGROV1 ovarian; 80.9 µM in the test on CAKI-1 renal; 45.8 µM in the test on SK-MEL-2 melanoma. For the same molecule, the TGI with 786-0 renal is 97.4 µM; in the test on RXF 393 renal, 5.75 µM; in the test on PC-3 prostate, > 100 µM; in the test on HCC-2998 colon, 44.4 µM.

`CNCc1ccc(-c2[nH]c3cc(F)cc4c3c2CCNC4=O)cc1`: the GI50 with COLO 205 colon was 11.7 µM; in the test on T-47D breast, 16.8 µM; in the test on RPMI-8226 leukemia it was 23.7 µM; in the test on IGROV1 ovarian it was 20.8 µM; in the test on CAKI-1 renal, 16.7 µM; in the test with SK-MEL-2 melanoma, 20.9 µM. Moreover, the GI50 is 19 µM in the test on 786-0 renal, 12.3 µM in the test with RXF 393 renal, 23.6 µM with PC-3 prostate and 16.5 µM in the test with HCC-2998 colon. The TGI in the test on COLO 205 colon was 26.4 µM; with T-47D breast it was 55 µM; in the test on RPMI-8226 leukemia, 73.3 µM; with IGROV1 ovarian, > 72.2 µM; in the test with CAKI-1 renal, 60 µM; with SK-MEL-2 melanoma, 39.3 µM. Moreover, the TGI with 786-0 renal was 41.5 µM; in the test with RXF 393 renal, 26.2 µM; in the test on PC-3 prostate, > 100 µM; in the test on HCC-2998 colon it was 35.6 µM.
